Measurements reported in US20100298141A1, “SUBSTITUTED PYRIDINE N-OXIDE HERBICIDES” (E. I. DU PONT DE NEMOURS AND COMPANY, priority 2007, published 2010).

Assays:
woolly cupgrass = assay: Test C pre-/postemergence test; format: in vivo, Eriochloa villosa
Outline: (§1)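 Compounds in a non-phytotoxic solvent with surfactant applied preemergence to seeded pots and, at the same time, postemergence to plants 2–18 cm tall (1- to 4-leaf stage). Paddy tests: pots flooded to 3 cm, compound applied into the water, depth held throughout.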

bermudagrass = assay: Test C pre-/postemergence test; format: in vivo, Cynodon dactylon
Outline: as §1

green foxtail = assay: Test C pre-/postemergence test; format: in vivo, Setaria viridis
Outline: as §1

wild oat = assay: Test C pre-/postemergence test; format: in vivo, Avena fatua
Outline: as §1

kochia = assay: Test C pre-/postemergence test; format: in vivo, Kochia scoparia
Outline: as §1

redroot pigweed = assay: Test A pre-/postemergence greenhouse test; format: in vivo, Amaranthus retroflexus; settings: for Pigweed plant response rating: 0 to 100 scale; for Plant response rating, Pigweed: 0 to 100 scale where 0 is no effect and 100 is complete control
Outline: (§2)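 Sowing in loam/sand; same-day pre (directed soil spray) and post (foliar, 1–2 leaf, 2–10 cm) treatment with surfactant-containing non-phytotoxic solvent formulation; ~10 days in greenhouse; eye-scored injury against untreated plants.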

morningglory = assay: Test A pre-/postemergence greenhouse test; format: in vivo, Ipomoea spp.; settings: for Morningglory plant response rating: 0 to 100 scale; for Plant response rating, Morningglory: 0 to 100 scale where 0 is no effect and 100 is complete control
Outline: as §2

rice = assay: Test C flooded paddy test; format: in vivo, Oryza sativa; settings: Flood
Outline: (§3)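 Test compounds are applied straight into paddy water held 3 cm above the soil surface, with that flood maintained for the whole test. After 13 to 15 days in the greenhouse, each species is scored visually relative to controls.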

downy brome = assay: Test C pre-/postemergence test; format: in vivo, Bromus tectorum
Outline: as §1

yellow nutsedge = assay: Test C pre-/postemergence test; format: in vivo, Cyperus esculentus
Outline: as §1

lambsquarters = assay: Test C pre-/postemergence test; format: in vivo, Chenopodium album
Outline: as §1

duck salad = assay: Test C flooded paddy test; format: in vivo, Heteranthera limosa; settings: Flood
Outline: as §3

soybean = assay: Test C pre-/postemergence test; format: in vivo, Glycine max
Outline: as §1

catchweed bedstraw = assay: Test C pre-/postemergence test; format: in vivo, Galium aparine
Outline: as §1

cocklebur = assay: Test C pre-/postemergence test; format: in vivo, Xanthium strumarium
Outline: as §1

blackgrass = assay: Test C pre-/postemergence test; format: in vivo, Alopecurus myosuroides
Outline: as §1

[1] = 31 g ai/ha, Preemergence, scale 0 to 100
[2] = 62 g ai/ha, preemergence, scale 0 (no effect) to 100 (complete control)
[3] = preemergence, 125 g ai/ha, scale 0 (no effect) to 100 (complete control)
[4] = Postemergence, 125 g ai/ha, 0 is no effect, 100 is complete control
[5] = Postemergence, 500 g ai/ha, 0 is no effect, 100 is complete control
[6] = Preemergence, 125 g ai/ha, 0 no effect, 100 complete control
[7] = 31 g ai/ha, scale 0 to 100 (0 no effect, 100 complete control)
[8] = 62 g ai/ha, scale 0 to 100, 0 no effect, 100 complete control, 13 to 15 days
[9] = 125 g ai/ha, scale 0 to 100, 0 no effect, 100 complete control, 13 to 15 days
[10] = 250 g ai/ha, scale 0 to 100 (0 no effect, 100 complete control)
[11] = 62 g ai/ha, Preemergence, scale 0 to 100
[12] = 125 g ai/ha, preemergence, scale 0 (no effect) to 100 (complete control)
[13] = Preemergence, 31 g ai/ha, scale 0 to 100 (0 no effect, 100 complete control)
[14] = preemergence, 250 g ai/ha, scale 0 (no effect) to 100 (complete control)
[15] = Preemergence, 500 g ai/ha, 0 no effect, 100 complete control
[16] = 62 g ai/ha, scale 0 to 100 (0 no effect, 100 complete control)
[17] = 250 g ai/ha, scale 0 to 100, 0 no effect, 100 complete control, 13 to 15 days

Cn1nc(C(F)(F)F)c(C[S+]([O-])c2ccc(Br)c[n+]2[O-])c1OC(F)F (racemic) [Compound 16]
Cupgrass, Woolly plant response rating (woolly cupgrass; [1]): 20 | Cupgrass, Woolly plant response rating (woolly cupgrass; [2]): 80 | Plant response rating (0 to 100), Cupgrass, Woolly (woolly cupgrass; Preemergence, 250 g ai/ha): 100 | Cupgrass, Woolly plant response rating (woolly cupgrass; [3]): 95 | Bermudagrass plant response rating (bermudagrass; [1]): 80 | Bermudagrass plant response rating (bermudagrass; [2]): 98 | Plant response rating (0 to 100), Bermudagrass (bermudagrass; Preemergence, 250 g ai/ha): 100 | Bermudagrass plant response rating (bermudagrass; [3]): 100 | Foxtail, Green plant response rating (green foxtail; [1]): 70 | Foxtail, Green plant response rating (green foxtail; [2]): 70 | Plant response rating (0 to 100), Foxtail, Green (green foxtail; Preemergence, 250 g ai/ha): 100 | Foxtail, Green plant response rating (green foxtail; [3]): 70 | Oat, Wild plant response rating (wild oat; [1]): 0 | Oat, Wild plant response rating (wild oat; [2]): 70 | Plant response rating (0 to 100), Oat, Wild (wild oat; Preemergence, 250 g ai/ha): 80 | Oat, Wild plant response rating (wild oat; [3]): 75 | Kochia plant response rating (kochia; [1]): 20 | Kochia plant response rating (kochia; [2]): 100 | Plant response rating (0 to 100), Kochia (kochia; Preemergence, 250 g ai/ha): 100 | Kochia plant response rating (kochia; [3]): 100 | Pigweed plant response rating (redroot pigweed; [4]): 20 | Pigweed plant response rating (redroot pigweed; [5]): 70 | Pigweed plant response rating (redroot pigweed; [6]): 100 | Plant response rating, Pigweed (redroot pigweed; Preemergence, 500 g ai/ha): 100 | Morningglory plant response rating (morningglory; [4]): 20 | Morningglory plant response rating (morningglory; [5]): 60 | Morningglory plant response rating (morningglory; [6]): 30 | Plant response rating, Morningglory (morningglory; Preemergence, 500 g ai/ha): 80 | Plant response rating, Rice (rice; [7]): 0 | Plant response rating, Rice (rice; [8]): 0 | Plant response rating, Rice (rice; [9]): 0 | Plant response rating, Rice (rice; [10]): 0 | Bromegrass, Downy plant response rating (downy brome; [1]): 20 | Bromegrass, Downy plant response rating (downy brome; [2]): 50 | Plant response rating (0 to 100), Bromegrass, Downy (downy brome; Preemergence, 250 g ai/ha): 60 | Bromegrass, Downy plant response rating (downy brome; [3]): 55 | Nutsedge, Yellow plant response rating (yellow nutsedge; [1]): 60 | Nutsedge, Yellow plant response rating (yellow nutsedge; [2]): 80 | Plant response rating (0 to 100), Nutsedge, Yellow (yellow nutsedge; Preemergence, 250 g ai/ha): 100 | Nutsedge, Yellow plant response rating (yellow nutsedge; [3]): 85 | Lambsquarters plant response rating (lambsquarters; [1]): 80 | Lambsquarters plant response rating (lambsquarters; [2]): 90 | Plant response rating (0 to 100), Lambsquarters (lambsquarters; Preemergence, 250 g ai/ha): 100 | Lambsquarters plant response rating (lambsquarters; [3]): 100 | Plant response rating, Ducksalad (duck salad; [7]): 0 | Plant response rating, Ducksalad (duck salad; [8]): 0 | Plant response rating, Ducksalad (duck salad; [9]): 0 | Plant response rating, Ducksalad (duck salad; [10]): 0 | Soybean plant response rating (soybean; [1]): 0 | Soybean plant response rating (soybean; [2]): 30 | Plant response rating (0 to 100), Soybean (soybean; Preemergence, 250 g ai/ha): 80 | Soybean plant response rating (soybean; [3]): 60 | Galium plant response rating (catchweed bedstraw; [1]): 0 | Galium plant response rating (catchweed bedstraw; [2]): 100 | Plant response rating (0 to 100), Galium (catchweed bedstraw; Preemergence, 250 g ai/ha): 100 | Galium plant response rating (catchweed bedstraw; [3]): 100 | Cocklebur plant response rating (cocklebur; [1]): 0 | Cocklebur plant response rating (cocklebur; [2]): 0 | Plant response rating (0 to 100), Cocklebur (cocklebur; Preemergence, 250 g ai/ha): 0 | Cocklebur plant response rating (cocklebur; [3]): 0 | Blackgrass plant response rating (blackgrass; [1]): 0 | Blackgrass plant response rating (blackgrass; [2]): 50 | Blackgrass plant response rating (blackgrass; [3]): 50

C#CCOc1c(CS(=O)(=O)c2cccc[n+]2[O-])c(C(F)(F)F)nn1C [Compound 103]
Cupgrass, Woolly plant response rating (woolly cupgrass; [11]): 30 | Cupgrass, Woolly plant response rating (woolly cupgrass; [12]): 85 | Plant response rating, Cupgrass, Woolly (woolly cupgrass; [13]): 0 | Cupgrass, Woolly plant response rating (woolly cupgrass; [14]): 100 | Bermudagrass plant response rating (bermudagrass; 62 g ai/ha, Preemergence, scale 0 to 100 (0 no effect, 100 complete control)): 100 | Bermudagrass plant response rating (bermudagrass; [12]): 100 | Plant response rating, Bermudagrass (bermudagrass; [13]): 40 | Bermudagrass plant response rating (bermudagrass; [14]): 100 | Foxtail, Green plant response rating (green foxtail; [11]): 98 | Foxtail, Green plant response rating (green foxtail; [12]): 100 | Plant response rating, Foxtail, Green (green foxtail; [13]): 60 | Foxtail, Green plant response rating (green foxtail; [14]): 100 | Oat, Wild plant response rating (wild oat; [11]): 60 | Oat, Wild plant response rating (wild oat; [12]): 100 | Plant response rating, Oat, Wild (wild oat; [13]): 40 | Oat, Wild plant response rating (wild oat; [14]): 100 | Kochia plant response rating (kochia; [11]): 0 | Kochia plant response rating (kochia; [12]): 100 | Kochia plant response rating (kochia; [14]): 100 | Plant response rating, Pigweed (redroot pigweed; Postemergence, 125 g ai/ha): 30 | Pigweed plant response rating (redroot pigweed; [5]): 60 | Pigweed plant response rating (redroot pigweed; [6]): 60 | Pigweed plant response rating (redroot pigweed; [15]): 100 | Plant response rating, Morningglory (morningglory; Postemergence, 125 g ai/ha): 20 | Morningglory plant response rating (morningglory; [5]): 70 | Morningglory plant response rating (morningglory; [6]): 0 | Morningglory plant response rating (morningglory; [15]): 70 | Plant response rating, Rice (rice; [16]): 0 | Plant response rating, Rice (rice; [17]): 0 | Bromegrass, Downy plant response rating (downy brome; [11]): 0 | Bromegrass, Downy plant response rating (downy brome; [12]): 70 | Plant response rating, Bromegrass, Downy (downy brome; [13]): 0 | Bromegrass, Downy plant response rating (downy brome; [14]): 70 | Nutsedge, Yellow plant response rating (yellow nutsedge; [11]): 70 | Nutsedge, Yellow plant response rating (yellow nutsedge; [12]): 85 | Plant response rating, Nutsedge, Yellow (yellow nutsedge; [13]): 0 | Nutsedge, Yellow plant response rating (yellow nutsedge; [14]): 85 | Lambsquarters plant response rating (lambsquarters; [11]): 50 | Lambsquarters plant response rating (lambsquarters; [12]): 50 | Plant response rating, Lambsquarters (lambsquarters; [13]): 10 | Lambsquarters plant response rating (lambsquarters; [14]): 95 | Plant response rating, Ducksalad (duck salad; [16]): 20 | Plant response rating, Ducksalad (duck salad; [17]): 70 | Soybean plant response rating (soybean; [11]): 0 | Soybean plant response rating (soybean; [12]): 10 | Plant response rating, Soybean (soybean; [13]): 0 | Soybean plant response rating (soybean; [14]): 50 | Galium plant response rating (catchweed bedstraw; [11]): 98 | Galium plant response rating (catchweed bedstraw; [12]): 98 | Galium plant response rating (catchweed bedstraw; [14]): 100 | Cocklebur plant response rating (cocklebur; [11]): 0 | Cocklebur plant response rating (cocklebur; [12]): 0 | Plant response rating, Cocklebur (cocklebur; [13]): 0 | Cocklebur plant response rating (cocklebur; [14]): 30 | Blackgrass plant response rating (blackgrass; [11]): 100 | Blackgrass plant response rating (blackgrass; [12]): 100 | Plant response rating, Blackgrass (blackgrass; [13]): 100 | Blackgrass plant response rating (blackgrass; [14]): 100
